The results in this text go back to the supplement of paper PMC6723410.

In one test the test system is GUMC-403. Nature of the test: viability at highest tested concentration (max response) relative to DMSO (% of DMSO control); higher = less cytotoxic. To be noted: library / dose series: MIPE library, 11-point 1:3 dilution; top concentration 23 µM; 48 h. The method, boiled down: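 The value is viability at the highest tested concentration, expressed relative to vehicle control. Patient-derived GUMC-403 papilloma cells, grown by conditional reprogramming, were seeded at 700/well in 5 μL F + Y medium in 1536-well plates. After an overnight incubation at 37 °C, they received 23 nL of compound by pin tool for 48 h. Readout was CellTiter-Glo luminescence on a ViewLux, normalised to vehicle wells (100%) and empty wells (0%).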
As for `O=P(O)(O)C(O)(Cn1ccnc1)P(=O)(O)O`, the viability is 122.

Staying with this test, now noted: library / dose series: MIPE library, 11-point 1:3 dilution; top concentration 46.1 µM; 48 h.
For `CC1=C(/C=C/C(C)=C/C=C/C(C)=C/C=C/C=C(C)/C=C/C=C(C)/C=C/C2=C(C)CCCC2(C)C)C(C)(C)CCC1`, the viability was 113. For the compound `CN(C)[S+](=O)([O-])c1ccc2c(c1)C(=Cc1cc3c([nH]1)CCCC3)C(=O)N2`, the viability is 122. On the same count and under the same terms, as for `CC1=NN(c2ccc(C)c(C)c2)C(=O)/C1=N/Nc1cccc(-c2cccc(C(=O)O)c2)c1O`, the figure is 101; as for `CCC(C)SSc1ncc[nH]1` (stereo not given), 101; as for `Nc1ccc([S+](=O)([O-])Nc2ncccn2)cc1`, 131. `CC(C)NCC(O)COc1ccc(CCOCC2CC2)cc1` (stereo not given) had a viability of 117. `CCC(=O)NCC[C@@H]1CCc2ccc3c(c21)CCO3` registered a viability of 122. As to `Cc1ccccc1C(C(=O)NC1CCCC1)N(C(=O)Cn1cnc2ccccc21)c1cccc(F)c1` (stereo not given), the viability stood at 101. Regarding `C1COC(NC(C2CC2)C2CC2)=N1`, the viability was 91.2.

For the compound `C[C@H]1[C@H](O)O[C@@H]2O[C@@]3(C)CC[C@H]4[C@H](C)CC[C@@H]1[C@@]24OO3`, the viability was found to be 90.6. On the same count and under the same terms, as for `CC(C)n1cnc2c(NCCCCCCNC(=O)OC(C)(C)C)nc(NCCO)nc21`, the figure is 107; as for `COc1ccc(Nc2nccc(NCCO)n2)cc1`, 99.9; as for `CN(C)CCc1c[nH]c2ccc(C[S+](=O)([O-])N3CCCC3)cc12`, 78.5. The compound `O=C(NCCO[N+](=O)[O-])c1cccnc1` came in with a viability of 108. As to `O=C(c1ccc(F)cc1)C1CCN(CCn2c(=O)[nH]c3ccccc3c2=O)CC1`, the viability was 110.

In turn, `COC1CCC(CC1)N(C(=O)C2CCC(C)CC2)C3=C(SC(=C3)\C4=C\CCCC4)C(O)=O` (stereo not given) displayed a viability of 110. With `COC1=C(OC)C(=O)C(C/C=C(\C)CC/C=C(\C)CC/C=C(\C)CC/C=C(\C)CC/C=C(\C)CC/C=C(\C)CC/C=C(\C)CC/C=C(\C)CC/C=C(\C)CCC=C(C)C)=C(C)C1=O`, the viability worked out at 118. On the same count and under the same terms, in the case of `O=C(O)c1ccccc1C(=O)Nc1ccc(-c2ccccc2)cc1` it was 111. Still for that read-out and setting: in the case of `CC(C)(CO)[C@@H](O)C(=O)NCCC(=O)O` it was 82.6; in that of `O=C1CCC(N2C(=O)c3ccccc3C2=O)C(=O)N1` (stereo not given), 92; in that of `C[C@@H]1[C@H](O)[C@@H](C)C=CC=CCCC=CC=CC=CC=C[C@H](O[C@H]2O[C@@H](C)[C@H](O)[C@@H](N)[C@H]2O)CC2O[C@](O)(C[C@@H](O)[C@H](O)CC[C@@H](O)C[C@@H](O)C[C@@H](O)CC(=O)O[C@H]1C)C[C@H](O)[C@H]2C(=O)O`, 115. `Cc1c[nH]c(/C=C2\C(=O)Nc3ccccc32)c1CCC(=O)O` displayed a viability of 136.

`O=C(O)CCCc1ccc(N(CCCl)CCCl)cc1`: the viability was determined as 111.

In the case of `CCO[C@@H]1OC(=O)C[C@@H]1NC(=O)[C@@H]1CCCN1C(=O)[C@@H](NC(=O)c1ccc(N)c(Cl)c1)C(C)(C)C`, the viability was 138.

For the compound `COc1nccc(-c2c(-c3ccc(F)cc3)ncn2C2CCC(O)CC2)n1` (stereo not given), the viability turned out to be 131. Compound `CC1(C)OC2CC3C4CC(F)C/5=C/C(=O)/C=C\C5(C)C4C(O)CC3(C)[C@@]2(O1)C(=O)CO` (stereo not given in full) came in with a viability of 148. `CC/1=C(/N2[C@H](SC1)[C@H](NC(=O)C(N)C3=CC=CC=C3)C2=O)C(O)=O` (stereo not given in full): the viability is 106. `CCc1cc(-c2n[nH]c(C)c2-c2ccc3c(c2)OCCO3)c(O)cc1O` registered a viability of 88.7. In turn, `C[C@]12CCC(=O)C=C1CC[C@@H]1[C@@H]2[C@@H](O)C[C@@]2(C)[C@H]1CC[C@]2(O)C(=O)CO` gave a viability of 135. `Cc1ccc(/C=N/NC(=O)c2ccccc2Oc2ccccc2)o1` showed a viability of 92. On the same count and under the same terms, as for `O=[S+]([O-])(F)Cc1ccccc1`, the figure is 84.1; as for `CCN(CC)CCOC1=CC=C(NC2=NC=C3\C=C(/C(=O)N(C)C3=N2)C4=C(Cl)C=CC=C4Cl)C=C1`, 75.4. Still for that read-out and setting: as for `O=C(Nc1nc2ccccc2n1CCN1CCOCC1)c1cccc([N+](=O)[O-])c1`, the figure is 124; as for `COc1cc(OC)c(C(=O)CCCN2CCCC2)c(OC)c1`, 112. As for `Cc1c(NC(=O)OC[C@@H]2COCCN2)cn2ncnc(Nc3ccc4c(cnn4Cc4cccc(F)c4)c3)c12`, the viability came to 75.8. On the same count and under the same terms, as for `COc1ccc2cc3[n+](cc2c1OC)CCc1cc2c(cc1-3)OCO2`, the figure is 99.7; as for `O=C(O)CCNC(=O)c1ccc(/N=N/c2ccc(O)c(C(=O)O)c2)cc1`, 107; as for `NC/1=N/C(=O)N/C=C1F`, 104. Same read-out and setting: as for `CCCC(CCC)C(=O)[O-]`, the figure is 88.8; as for `CC(=O)[C@H]1CC[C@H]2[C@@H]3CCC4=CC(=O)CC[C@]4(C)[C@H]3CC[C@]12C`, 118; as for `CN[C@@H]1Cc2cccc3[nH]c(=O)n(c23)C1`, 112. Compound `CNC(=O)N1\N=C(\C2=CC=C(N)C=C2)C3=CC4=C(OCO4)C=C3CC1C` (stereo not given) gave a viability of 107. Regarding `OC1=CC2=C(C(=C1)O)C(=O)\C(=C(/O2)C3=CC(=C(O)C(=C3)O)O)O`, the viability was determined as 102. Consider `CN(C)[C@H]\1[C@@H]2C[C@H]3C(=C(O)\[C@]2(O)C(=O)\C(=C1O)C(N)=O)/C(=O)C4=C(O)C=CC=C4[C@@]3(C)O`, for which the viability is 106.

For the compound `CNC(=O)c1cc(Oc2ccc(NC(=O)Nc3ccc(Cl)c(C(F)(F)F)c3)c(F)c2)ccn1`, the viability was 101. For `O=C(N[C@@H](c1ccccc1)[C@@H]1CCCCN1)c1cccc(C(F)(F)F)c1Cl`, the viability worked out at 99.

`C[C@]12C[C@H](O)[C@H]3[C@@H](CC\C4=C\C(=O)\C=C/[C@]34C)[C@@H]1CC[C@]2(O)C(=O)CO`: the viability stood at 118. Same read-out and setting: in the case of `CCCOc1ccc(C(=O)OCCN(CC)CC)cc1N` it was 115; in that of `CC(=O)O[C@H]1C(=O)[C@]2(C)[C@@H](O)C[C@H]3OC[C@@]3(OC(C)=O)C2[C@H](OC(=O)C4=CC=CC=C4)[C@]5(O)C[C@H](OC(=O)[C@H](O)[C@@H](NC(=O)C6=CC=CC=C6)C7=CC=CC=C7)\C(=C1/C5(C)C)C` (stereo not given in full), 97.8.

In turn, `CN1CCC[C@@H]1CCO[C@](C)(c1ccccc1)c1ccc(Cl)cc1` showed a viability of 103.

`CC[N+](CC)(CC)CCOc1cccc(OCC[N+](CC)(CC)CC)c1OCC[N+](CC)(CC)CC` registered a viability of 97.6. As to `CC(=O)N(C)C1(c2ccccc2)CCN(CCC[C@]2(c3ccc(Cl)c(Cl)c3)CCCN(C(=O)c3ccccc3)C2)CC1`, the viability was 96.7. Consider `Cc1ccc(F)c(NC(=O)Nc2ccc(-c3cccc4[nH]nc(N)c34)cc2)c1`, for which the viability came out at 50.7.

In turn, `NC(=O)N1CCC(CC(=O)N2CCC([C@H]3c4ncc(Br)cc4CCc4cc(Cl)cc(Br)c43)CC2)CC1` gave a viability of 101. `N[S+](=O)([O-])c1cc(Cl)c(Cl)c([S+](N)(=O)[O-])c1` yielded a viability of 109. As to `CO[C@H]1C[C@@H]2CC[C@@H](C)[C@@](O)(O2)C(=O)C(=O)N2CCCC[C@H]2C(=O)O[C@H]([C@@H](C)C[C@@H]2CC[C@@H](O)[C@H](OC)C2)CC(=O)[C@H](C)/C=C(\C)[C@@H](O)[C@@H](OC)C(=O)[C@H](C)C[C@H](C)/C=C/C=C/C=C/1C`, the viability was found to be 106. `COc1ccc(-n2nc(C(N)=O)c3c2C(=O)N(c2ccc(N4CCCCC4=O)cc2)CC3)cc1` showed a viability of 146. As to `CC(=O)Oc1cc2c(s1)CCN(C(C(=O)C1CC1)c1ccccc1F)C2.Cl` (stereo not given), the viability was 114.

`CC1(C)O[C@@H]2C[C@H]3[C@@H]4C[C@H](F)C5=CC(=O)C=C[C@]5(C)[C@@]4(F)[C@@H](O)C[C@]3(C)[C@]2(C(=O)CO)O1`: the viability is 109. For the compound `CN(C)CC[C@H](c1ccc(Cl)cc1)c1ccccn1`, the viability was 112. In turn, `NC/1=N/C(=O)N(/C=N1)[C@@H]2O[C@H](CO)[C@@H](O)[C@H]2O` returned a viability of 103. Same read-out and setting: in the case of `CCNC(=O)c1cc2c(-c3cc(OCCN4CCCC4)c(Cl)cc3Cl)nc(N)nc2s1` it was 58.2. Compound `CC(c1cc2ccccc2s1)N(O)C(N)=O` (stereo not given) displayed a viability of 96.7. Same read-out and setting: in the case of `CCN(C)C(=O)Oc1cccc([C@H](C)N(C)C)c1` it was 125; in that of `Cn1cc(-c2ccc3nnc(Sc4ccc5ncccc5c4)n3n2)cn1`, 108. Same read-out and setting: as for `C[C@H]1C[C@H]2[C@@H]3CC[C@](O)(C(=O)CO)[C@@]3(C)C[C@H](O)[C@@H]2[C@@]\4(C)/C=C\C(=O)\C=C14`, the figure is 121; as for `C[C@@H]1C[C@H]2[C@@H]3CC\C4=C\C(=O)\C=C/[C@]4(C)[C@@]3(Cl)[C@@H](O)C[C@]2(C)[C@@]1(OC(=O)C5=CC=CO5)C(=O)CCl`, 133; as for `CC(C(=O)O)c1ccc2c(c1)CC(=O)c1ccccc1S2` (stereo not given), 103.

With `C[C@]12CC[C@@H]3c4ccc(O)cc4CC[C@H]3[C@@H]1C[C@@H](O)[C@@H]2O`, the viability is 87. `N=C(N)Nc1ccc(C(=O)Oc2ccc3cc(C(=N)N)ccc3c2)cc1`: the viability is 86.1. Regarding `CC(C)(C)NCC(O)c1ccc(O)c(CO)c1` (stereo not given), the viability was 109. For the compound `CN1CCc2c(n(Cc3ccc(C(=O)NO)cc3)c3ccccc23)C1`, the viability stood at 107.

`O=C(O)CSCC(=O)NC1CCSC1=O` (stereo not given): the viability stood at 139.

Still in this test, the particulars now being: library / dose series: MIPE library, 11-point 1:3 dilution; top concentration 92.2 µM; 48 h.
Consider `O=C(O)c1cc(O)c2c(c1)C(=O)c1cccc(O)c1C2=O`, for which the viability worked out at 110.
